# Laboratory results: PMC7676653, “Molecular analysis of cyclic α-maltosyl-(1→6)-maltose binding protein in the bacterial metabolic pathway” (PLoS ONE, 2020)
# Target: T1, CMMBP (CmmC) (Arthrobacter globiformis, UniProt D2YYD8)
# T1 construct: N-terminal 6xHis tag, pET-28b (NdeI/BamHI), E. coli Rosetta2 (DE3); structure domains span residues 31-421; tag cleavage not mentioned
# T1 sequence (D2YYD8 26-421): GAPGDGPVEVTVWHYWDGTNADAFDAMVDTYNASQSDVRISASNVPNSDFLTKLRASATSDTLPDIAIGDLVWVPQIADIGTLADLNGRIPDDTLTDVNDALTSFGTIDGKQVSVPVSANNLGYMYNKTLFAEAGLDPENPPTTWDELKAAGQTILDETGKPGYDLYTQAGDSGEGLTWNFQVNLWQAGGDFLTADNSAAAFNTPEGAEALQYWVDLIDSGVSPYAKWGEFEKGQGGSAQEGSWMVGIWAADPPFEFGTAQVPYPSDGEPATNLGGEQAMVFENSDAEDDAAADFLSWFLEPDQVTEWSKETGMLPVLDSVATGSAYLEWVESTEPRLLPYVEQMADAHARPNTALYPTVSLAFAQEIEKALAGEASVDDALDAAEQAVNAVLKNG
# Assay: isothermal titration calorimetry
# Assay type: binding
"Ka (×10^8 M^-1) (20 mM Tris-HCl pH 8.0, 25 °C, one-site model, printed in parentheses as not reliable (weak affinity, low c value))",Kd [nM],Structure (SMILES)
(0.0022 ± 0.0014) × 10^8,,"OC[C@H]1O[C@H](O[C@H]2[C@H](O)[C@@H](O)[C@@H](OC[C@H]3O[C@H](O[C@H]4[C@H](O)[C@@H](O)C(O)O[C@@H]4CO)[C@H](O)[C@@H](O)[C@@H]3O)O[C@@H]2CO)[C@H](O)[C@@H](O)[C@@H]1O (stereo partly drawn) [MM, α-maltosyl-(1→6)-maltose]"
,9.6,"OC[C@H]1O[C@@H]2OC[C@H]3O[C@H](O[C@H]4[C@H](O)[C@@H](O)[C@@H](OC[C@H]5O[C@H](O[C@H]1[C@H](O)[C@H]2O)[C@H](O)[C@@H](O)[C@@H]5O)O[C@@H]4CO)[C@H](O)[C@@H](O)[C@@H]3O [CMM, cyclo-{→6}-α-D-Glcp-(1→4)-α-D-Glcp-(1→6)-α-D-Glcp-(1→4)-α-D-Glcp-(1→)]"
